US6388122B1, “Tryptase inhibitor and novel guanidino derivatives” (Ono Pharmaceutical Co., Ltd., priority 1996, dated 2002)
Structures can show the parent of a compound that is named as a salt.

Experiments:
[1] = target: T1, trypsin (derived from bovine pancreas) (Bos taurus, UniProt P00760); test: Trypsin inhibitory activity (BAPNA absorbance); format: biochemical; details: substrate BAPNA, pH 8.0, 30° C.
T1 construct: trypsin (derived from bovine pancreas); from tissue; host or cells: bovine pancreas
T1 sequence (P00760 24-246): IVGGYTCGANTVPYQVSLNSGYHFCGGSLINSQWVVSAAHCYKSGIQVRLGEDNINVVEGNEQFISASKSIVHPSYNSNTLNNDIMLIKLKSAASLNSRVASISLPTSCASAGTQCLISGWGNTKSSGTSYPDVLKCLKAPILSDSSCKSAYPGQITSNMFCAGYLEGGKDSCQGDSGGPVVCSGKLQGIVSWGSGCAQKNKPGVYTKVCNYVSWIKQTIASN
Description: To 0.2 M HEPES/sodium hydroxide buffer (pH 8.0, 100 μl) and distilled water (640 μl) were added the subject compound in various concentrations or water (10 μl) and a 80 mU/ml trypsin (derived from bovine pancreas) solution (50 μl), and the resulting mixture was allowed to preincubation at 30° C. for a minute. To the resulting reaction mixture, 2.5 mM BAPNA (200 μl) was added, incubation was made at 30° C., and the absorbance at 405 nm was determined. The absorbance in the absence of the subject compound was defined as 100% to obtain the percentage (%) in the existence of the sample compound and calculate the value of IC50.

[2] = target: T2, Tryptase purified from the human lungs; test: Tryptase inhibitory activity (Boc-Phe-Ser-Arg-MCA fluorescence); format: biochemical; details: human lung tryptase, pH 7.5, 37° C., 5 minutes incubation, substrate Boc-Phe-Ser-Arg-MCA
T2 construct: Tryptase was purified from the human lungs in accordance with the method of T. J. Smithetal. described in J. Biol. Chem., 259, 11046 (1984)
Description: Tryptase was purified from the human lungs in accordance with the method of T. J. Smithetal. described in J. Biol. Chem., 259, 11046 (1984). The enzyme purified in the concentration of 25.7 U/ml was diluted 10 times with 100 mM Tris/hydrochloride buffer (pH 7.5) at use. The enzyme solution prepared above (5 μl) was mixed with 100 mM Tris/hydrochloride buffer (pH 7.5, 500 μl) and the aqueous solution of the subject compound in various concentrations or water (5 μl), and the resulting mixture was incubated at 37° C. for 5 minutes. To the reaction mixture was added 20 mM Boc-Phe-Ser-Arg-MCA (2.5 μl), and elevation in fluorescence for a minute was determined at Ex=370 nm, Em=460 nm. The elevation in fluorescence in the absence of the subject compound was defined as 100% to obtain the percentage (%) in the existence of the sample compound and calculate the value of IC50.

[3] = target: T3, PLA2 (derived from pig pancreas) (Sus scrofa, UniProt P00592); test: PLA2 inhibitory activity (10PY-PC fluorescence); format: biochemical; details: pig pancreas PLA2, substrate 10PY-PC, pH 7.5
T3 construct: PLA2 (derived from pig pancreas); from tissue; host or cells: pig pancreas
Description: A reaction mixture was prepared which contained 50 mM Tris/hydrochloride buffer (pH 7.5, 874 μl: 100 mM sodium chloride and 1 mM EDTA contained), 1 M calcium chloride (6 μl), 1% bovine serum albumin (10 μl) and 2.5 mM 10PY-PC (10 μl). To the reaction mixture were added the subject compound in various concentrations or water (50 μl) and a 10 mU/ml PLA2 (derived from pig pancreas) solution (50 μl), and the intensity of fluorescence was determined at Ex=345 nm and Em=396 nm. The intensity of fluorescence in the absence of the subject compound was defined as 100% to obtain the percentage (%) In the existence of the sample compound and calculate the value of IC50.

[4] = Toxicity (LD50, intravenous, male mice); details: mouse, in vivo, intravenously administered to male mice
Text: Extremely low toxicity has been confirmed in each of the active ingredients and nontoxic salts and nontoxic acid addition salts thereof encompassed in the present invention. […] Accordingly, any of the active substances encompassed in the present invention can be considered to be adequately safe and suitable for use as pharmaceuticals.

[5] = system: carbon tetrachloride-induced rat chronic hepatopathy; test: Effect on carbon tetrachloride-induced rat chronic hepatopathy; format: in vivo; details: 3 mg/kg oral once a day for 8 weeks starting 5 weeks after carbon tetrachloride, liver taken at 12 weeks
Description: Carbon tetrachloride (1.5 mg/kg) was repeatedly given to rats by subctaneous administration twice a week for 12 weeks to induce impairment. The liver was taken out 12 weeks after inducing, the effect on hepatic fibrogenesis was evaluated using the hepatic […] content as the indication. The aqueous solution of the subject compound in concentration of 3 mg/kg was repeatedly given by oral administeration once a day for 8 weeks, initially administered 5 weeks after the administration of carbon tetrachloride.

[6] = system: bleomycin-induced rat pulmonary fibrosis; test: Effect on bleomycin-induced rat pulmonary fibrosis; format: in vivo; details: 10 mg/kg oral once a day for 14 days, lungs taken 15 days after bleomycin
Description: Under anesthetization with pentobarbital, bleomycin hydrochloride (0.9 mg/0.3 ml) was given to rats by endotracheal administration to induce impairment. The lungs were taken out 15 days after inducing, the effect on pulmonary fibrogenesis was evaluated using the pulmonary […] content as the indication. The aqueous solution of the subject compound In concentration of 10 mg/kg was repeatedly given by oral administeration once a day for 14 days, initially administered 10 hours after the administration of bleomycin.

T3 sequence (P00592 23-146): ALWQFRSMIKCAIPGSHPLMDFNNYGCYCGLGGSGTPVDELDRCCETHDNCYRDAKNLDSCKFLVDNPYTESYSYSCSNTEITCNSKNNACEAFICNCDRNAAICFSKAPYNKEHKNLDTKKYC

Compound	IC50 [2]	further results
CCOC(=O)C1CCCCN1C(=O)/C=C/c1ccc(C(=O)Oc2ccc(NC(=N)N)cc2)cc1 (stereo not shown) [Acetate of compound 7, p-(p-Guanidinophenoxycarbonyl)cinnamic Acid N-(2-ethoxcarbonyl)piperidlnylamide acetate]	–	IC50 [1]: 180 nM
CCOC(=O)[C@@H]1CCCN1C(=O)/C=C/c1ccc(C(=O)Oc2ccc(NC(=N)N)cc2)cc1 [Acetate of compound 10, p-(p-Guanidinophenoxycarbonyl)cinnamic Acid N-(2-(S)-ethoxycarbonyl)pyrrolidinylamide Acetate]	–	IC50 [1]: 180 nM
C=CCN(CC(=O)OCC)C(=O)/C(C)=C/c1ccc(C(=O)Oc2ccc(NC(=N)N)cc2)cc1 [Acetate of compound 13, p-(p-Guanidinophenoxycarbonyl)-α-methylcinnamic Acid N-allyl-N-ethoxycarbonylmethylamide Acetate]	5 nM	IC50 [1]: 160 nM
C#CCN(CC(=O)OCC)C(=O)/C(C)=C/c1ccc(C(=O)Oc2ccc(C(=N)N)cc2)cc1 [Acetate of compound 18, p-(p-amidinophenoxycarbonyl)-α-methylcinnamic acid N-propargyl-N-ethoxycarbonylmethylamide]	2.39 nM	–
CCCCCCN(CC(=O)OCC)C(=O)/C(C)=C/c1ccc(C(=O)Oc2ccc(C(=N)N)cc2)cc1 [Acetate of compound 22, p-(p-amidlnophenoxycarbonyl)-α-methylcinnamic acid N-ethoxycarbonylmethyl-N-hexylamide]	0.24 nM	–
C=CCN(CC(=O)OCC)C(=O)/C(C)=C/c1ccc(C(=O)Oc2ccc(C(=N)N)cc2C(=O)OC)cc1 [Acetate of compound 23, p-(4-amidino-2-methoxycarbonylphenoxycarbonyl)-α-methylcinnamic acid N-allyl-N-ethoxycarbonylmethylamide]	0.46 nM	–
CCOC(=O)CC(CC(=O)OCC)N(C(=O)/C(C)=C/c1ccc(C(=O)Oc2ccc(C(=N)N)cc2)cc1)C1CCCCC1 [Acetate of compound 24]	1.14 nM	–
CCOC(=O)CN(C(=O)/C=C/c1ccc(C(=O)Oc2ccc(NC(=N)N)cc2)cc1)c1ccccc1 [Hydrochloride of compound 5, p-(p-Guanidinophenoxycarbonyl)cinnamic Acid N-phenyl-N-ethoxycarbonylmethylamide Hydrochloride]	–	IC50 [3]: 8000 nM
CCOC(=O)CN(C(=O)/C(C)=C/c1ccc(C(=O)Oc2ccc(NC(=N)N)cc2)cc1)c1ccccc1 [Hydrochloride of compound 6, p-(p-Guanidinophenoxycarbony) -α-methylcinnamic Acid N-phenyl-N-ethoxycarbonylmethylamide Hydrochloride]	–	IC50 [3]: 5000 nM; IC50 [1]: 110 nM
N=C(N)c1ccc(OC(=O)c2ccc(/C=C/C(=O)N3CCN(Cc4ccccc4)CC3)cc2)cc1 [Hydrochloride of compound 19-2, p-(p-amidinophenoxycarbonyl)cinnamic acid N-(4-phenyl-methyl)piperadinylamide]	0.21 nM	–
CCOC(=O)CCN(CCCOC)C(=O)/C(C)=C/c1ccc(C(=O)Oc2ccc(C(=N)N)cc2)cc1 [Hydrochloride of compound 25, p-(p-amidinophenoxycarbonyl)-α-methylcinnamic acid N-2-ethoxycarbonylethyl-N-3-methoxypropylamide]	1.38 nM	–
CCOC(=O)c1ccc(OC(=O)CCCCCNC(=N)N)cc1 [Methanesulfonate of compound 1, p-ethoxycarbonylphenyl 6-guanidinohexanoate]	30 nM	–
CN(C)C(=O)COC(=O)Cc1ccc(OC(=O)c2ccc(NC(=N)N)cc2)cc1 [Methanesulfonate of compound 2, N,N-ddimethylcarbamoylmethyl p-(p-guanidinobenzoyloxy)phenylacetate]	4.33 nM	–
N=C(N)Nc1ccc(C(=O)Oc2ccc(CC(=O)O)cc2)cc1 [Methanesulfonate of compound 3, p-(p-guanidinobenzoyloxy)phenylacetic acid]	52.9 nM	–
CCOC(=O)CN(C(=O)c1ccc(C(=O)Oc2ccc(NC(=N)N)cc2)cc1)c1ccccc1 [Methanesulfonate of compound 14, p-(p-guanidinophenoxycarbonyl)benzoic acid N-phenyl-N-ethoxycarbonylmethylamide]	11.2 nM	–
N=C(N)Nc1ccc(OC(=O)c2cccc(S(N)(=O)=O)c2)cc1 [Methanesulfonate of compound 15, m-(p-guanidinophenoxycarbonyl)benzenesulfonamide]	192 nM	–
C=CCN(CC(=O)OCC)C(=O)/C(C)=C/c1ccc(C(=O)Oc2ccc(C(=N)N)cc2)cc1 [Methanesulfonate of compound 16, p-(p-amidinophenoxycarbonyl)-α-methylcinnamic acid N-allyl-N-ethoxycarbonylmethylamide]	1.4 nM	LD50 [4]: 117 mg/kg; Amount of hepatic Hydroxypurine [5]: 896.5 ± 686.7 μg/liver; Inhibition ratio (hepatic hydroxypurine) [5]: 58.1%
C=CCN(CC(=O)O)C(=O)/C(C)=C/c1ccc(C(=O)Oc2ccc(C(=N)N)cc2)cc1 [Methanesulfonate of compound 17, p-(p-amidinophenoxycarbonyl)-α-methylcinnamic acid N-allyl-N-carboxylmethylamide]	12.6 nM	Amount of pulmonary Hydroxypurine [6]: 3.774 ± 0.504 μg/lung; Inhibition ratio (pulmonary hydroxypurine) [6]: 40.6%
